Where two headings read alike, the source gives them in different places.

In general, efflux ratio refers to a quotient of directional permeabilities that is used to spot active efflux. By Papp A→B is commonly meant the apparent permeability from the apical to the basolateral side of a cell layer. Read a high Papp A→B as ready permeation. The Papp B→A is the apparent permeability from the basolateral to the apical side of a cell layer.

Series [1] deals with CDK8 (Homo sapiens, UniProt P49336). In words: Cellular thermal shift assay. The class given is cell-based. On the set-up: endogenous in cells; host or cells: HCT-116. Conditions: HCT-116 cells, 5 μM, 6 h; DMSO 49 °C; western blot. The method, then: Here, in order to identify compound 12 could bind CDK8, HCT-116 cells, a CDK8 high expression cell line, were treated with 5 μM compound 12 and DMSO for 6 h, respectively. Cell suspension was divided into 11 PCR tubes equally, then the samples were heated from 37 to 67 °C at intervals of 3 °C and the results were analysed through western blot. […] However, CDK8 was degraded almost completely at 55 °C after treated with compound 12, which indicated compound 12 enhanced the thermal stability of CDK8 and compound 12 could bind CDK8.
Chain of CDK8 (P49336 whole entry): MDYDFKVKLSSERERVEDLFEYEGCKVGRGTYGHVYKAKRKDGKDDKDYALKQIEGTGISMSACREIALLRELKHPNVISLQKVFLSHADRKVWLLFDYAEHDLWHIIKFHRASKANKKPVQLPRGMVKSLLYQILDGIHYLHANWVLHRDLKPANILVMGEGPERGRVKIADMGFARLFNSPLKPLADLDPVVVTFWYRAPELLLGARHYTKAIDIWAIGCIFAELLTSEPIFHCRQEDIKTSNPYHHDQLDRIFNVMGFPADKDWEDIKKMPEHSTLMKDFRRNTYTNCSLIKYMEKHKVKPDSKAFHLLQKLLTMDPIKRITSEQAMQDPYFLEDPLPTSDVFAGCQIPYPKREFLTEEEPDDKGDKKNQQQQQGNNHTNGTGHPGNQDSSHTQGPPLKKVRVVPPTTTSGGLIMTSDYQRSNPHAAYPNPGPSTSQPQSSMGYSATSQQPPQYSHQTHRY
CO2 atmosphere incubator for 24 h. Then, medium with compound at the concentrations of 100, 20, 4, 0.8, 0.016 μM was added into each well for another 48 h and incubated with CCK-8 (10 μL) for 2 h at 37 °C. The absorbance value at 450 nm was measured by the microplate reader (PerkinElmer Envision).
The kinase inhibition was detected by ADP-Glo™ Kinase Assay (Promega) using a black 384-well plate. […] The data was collected by the microplate reader. […]
were broken by ultr asonic treatment and centrifuged at 12000 rpm for 20 min. The supernatant was analyzed by western blot. […]
After co-treated with 2 μM biotinylated compound and compound 12 for 12 h, HCT-116 cells were lysed with NP-40 containing PMSF and centrifuged at 14000 r for 30 min at 4 °C. […] The samples were analyzed by western blot.

Series [2] addresses CDK9 (Homo sapiens, UniProt P50750). In words: CDKs selectivity, CDK9. The class given is biochemical. From the text:
CDK7 and CDK9 with the same transcription function and CDK2 and CDK6 were selected to evaluate the selectivity of compound 12.

Series [3] deals with GES-1. Briefly: In vitro toxicity CCK-8 assay, GES-1. The class given is cell-based. The following applies: Homo sapiens, GES1, GES-1 gastric mucosal epithelial cell, read-out: GC50 (the source's name). From the text:
(§1) Compounds12, 13 and 30 were selected for further cell activity assessments based on the enzymatic activity assessment results. molm-13 and MV4-11(acute myeloid lineage leukaemia cells), MGC-803 (gastric cancer cell), MDA-MB-231(breast cancer cell), A375 (melanoma cell), A549 (lung cancer cell), HCT-116, SW-480 and HT-29 (colorectal cancer cells) were selected to evaluate antitumor activity in vitro, GES-1 (gastric mucosal epithelial cell) was selected to evaluate toxicity in vitro.
(§2) CO2 atmosphere incubator for 24 h. Then, medium with compound at the concentrations of 100, 20, 4, 0.8, 0.016 μM was added into each well for another 48 h and incubated with CCK-8 (10 μL) for 2 h at 37 °C. The absorbance value at 450 nm was measured by the microplate reader (PerkinElmer Envision). […]

The subject of series [4] is molm-13. Briefly: Antiproliferative CCK-8 assay, molm-13. The class given is cell-based. Conditions: Homo sapiens; molm-13, CCK-8 assay, means ± SD; read-out: GC50 (the source's name).
Text: as §1, §2
(Tetrazolium assays rely on reduction of a dye to a coloured formazan, in cell work by metabolically active cells.)

For series [5], the system named is STAT1 Tyr701. In words: Phosphorylation of STAT1 Tyr701, western blot. Conditions: HCT-116 cells, 1, 2, 4 μM, 12 h. The class given is cell-based. The method, then: It has been reported that CDK8 could specifically target the transactivation domain of STAT1 at Ser727 phosphorylation. HCT-116 cells were treated with compounds 12 with different concentrations of 1 μM, 2 μM, 4 μM separately to verify compound 12 could inhibit the phosphorylation of STAT1 Ser727. […] It’s reported that CDK8 was also involved in S726 phosphorylation of STAT5 in AML cells.
1.7 The effect of compound on phosphorylation of STAT1 S727
HCT-116 cells were seeded into 60 mm cultural dishes at a density of 1.5×10^6 cells per dishes. After incubated for 12 h, cells were treated with DMSO or 10ng/mL IFN-γ.1 hour later, cells were treated with or without different concentrations of compound for 12 h. Cells were lysed using RIPA containing PMSF and phosphatase inhibitor cocktail A. Then cell samples were treated by western blot. Levels of total STAT1, phosphorylated STAT1 S727, Y701 and GAPDH were analyzed.
1.8 The effect of compound on phosphorylation of STAT5 S726
HL-60 cells were seeded into 60 mm cultural dishes at a density of 2×10^6 cells per dishes. […]
Levels of total STAT5, phosphorylated STAT5 S726 and GAPDH were analyzed.
The results were expressed as the means ± SEMs (SPSS software), and the differences between groups were evaluated using Turkey’s method (GraphPad Software). […]
On the technique in general: A western blot detects proteins with antibodies after separation by electrophoresis.

The nature of series [6]: Caco-2 permeability determination. The class given is in vitro ADME. The following applies: human.
The test system of series [7] is Caco-2. In words: Caco-2 permeability determination. The class given is in vitro ADME. The following applies: Caco-2.
In series [8] the test system is MDA-MB-231. Briefly: Antiproliferative CCK-8 assay, MDA-MB-231. The class given is cell-based. Conditions: Homo sapiens; MDA-MB-231, CCK-8 assay, means ± SD; read-out: GC50 (the source's name).
Text: as §1, §2

For series [9], the system named is A549. Briefly: Antiproliferative CCK-8 assay, A549. The class given is cell-based. Conditions: Homo sapiens; A549, CCK-8 assay, means ± SD; read-out: GC50 (the source's name).
Text: as §1, §2

Series [10] deals with CYP3A4/5. In words: CYP inhibition activity, 3A4/5 (M). The class given is in vitro ADME. Conditions: human; CYP 3A4/5 (M). From the text:
Table 7. CYP inhibition activity. | column: IC50 (μM) / 3A4/5 (M)

Chain of CDK9 (P50750 whole entry): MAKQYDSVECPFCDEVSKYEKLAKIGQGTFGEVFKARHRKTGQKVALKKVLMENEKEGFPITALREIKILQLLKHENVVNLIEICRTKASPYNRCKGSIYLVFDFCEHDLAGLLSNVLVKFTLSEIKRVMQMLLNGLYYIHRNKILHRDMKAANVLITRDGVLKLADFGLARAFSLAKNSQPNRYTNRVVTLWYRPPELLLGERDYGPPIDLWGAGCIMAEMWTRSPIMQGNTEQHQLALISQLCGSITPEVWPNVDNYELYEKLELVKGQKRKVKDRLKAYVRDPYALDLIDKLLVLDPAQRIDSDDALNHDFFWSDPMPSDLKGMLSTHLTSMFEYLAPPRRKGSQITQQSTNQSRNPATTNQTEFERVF

Consider `NC(=O)c1cccc(-c2cnc3[nH]cc(-c4ccoc4)c3c2)c1` [Compound 12, 3-(3-(furan-3-yl)-1H-pyrrolo[2,3-b]pyridin-5-yl)benzamide], for which the “Temperature at which CDK8 was degraded almost completely” value in series [1] came out at 55 °C. For the same compound, the IC50 in series [2] was 0.474 ± 0.0253 µM; in series [3], 25.7 ± 4.97 µM; in series [4] it was 0.02 ± 0.01 µM; in [8], more than 50 µM; in series [9] it was 15.5 ± 2.78 µM; in [10] it was more than 5e-05 M. For the same compound, the “Phosphorylation of STAT1 Tyr701” value in [5] is reported as “not inhibited”. The efflux ratio in series [6] (Caco-2) was 1.3. Also, the recovery in series [6] (Caco-2, Caco-2, A→B, read-out: Recovery A→B) stood at 107%; in series [6] (Caco-2, Caco-2, B→A, read-out: Recovery B→A) it was 108%. Moreover, the Papp A→B in [6] (Caco-2, A→B) was found to be 27 ×10⁻⁶ cm/s. The compound further came in with a Papp B→A in [6] (Caco-2, B→A) of 35.1 ×10⁻⁶ cm/s. The “Permeability (in words)” value in series [7] was “high permeability”.

These data come from PMC10810651, “Discovery of novel and potent CDK8 inhibitors for the treatment of acute myeloid leukaemia” (Journal of Enzyme Inhibition and Medicinal Chemistry, 2024).
